Measurements published in patent US6060473A, “7-azabicyclo[2.2.1]-heptane and -heptene derivatives as cholinergic receptor ligands” (priority 1996, dated 2000).
Read-outs that look alike come from different tables or passages of the source.

Tests used:
[1] = molecular target: T1, acetylcholine nicotinic receptor (Rattus norvegicus, UniProt P09483+P12390); assay: Nicotinic receptor binding, [3H]-NMCI radioligand, rat cortex (Table 6)
T1 construct: rat cortex as the tissue substrate; from tissue; host or cells: rat cortex
Procedure: 7-Aza-bicyclo[2.2.1]-heptanes and -heptenes were evaluated for their ability to bind to the acetylcholine nicotinic receptor using a standard binding assay, e.g. X. Zhang and A. Nordberg, Arch. Pharmacol., 348, 28 (1993); R. E. Middleton and J. B. Cohen, Biochemistry, 30, 6987 (1991), with nicotine sulfate as the reference compound, rat cortex as the tissue substrate, and a [^3 H]-NMCI radioligand.

[2] = Tail-flick assay (Tables 7 and 8, species not stated per value); assay type: in vivo, mice and rats; settings: for ED50: Mus musculus, sc, 5 min, read-out: Tail-Flick Assay ED50; for Tail-Flick Assay % Effect after 5 min: Table 7, 5 min; for Tail-Flick Assay % Effect after 5 min / Tail-Flick Assay % Effect after 60 min: head also prints ED50 (mg/kg); for Tail-Flick Assay % Effect after 60 min: Table 7, 60 min
Procedure: (§1) Female CD-1 mice (20-25 g, Charles River Labs) and male CD rats (300-400 g, Charles River Labs) were housed in groups of two and five, respectively. Animals were given food and water ad libitum. Most studies were performed using groups of 5 animals per treatment unless otherwise noted.
(§2) Antinociceptive effects (i.e., analgesia) of test compounds in mice and rats were measured by the tail-flick test using a tail-flick analgesia meter (EMDIE Instrument Co.). A maximum latency of 10 sec was imposed if no response occurred within that time. Antinociceptive activity, measured as % MPE, was calculated as [(test-control)/(10-control)×100)].
(§3) Duration of compound and (-)-nicotine-induced antinociception was assessed in mice by measuring antinociception at 2, 5, 10, 20 min after compound (20 μg/kg, s.c.) or nicotine (5 mg/kg, s.c.).
Mice (7/group) or rats were pretreated i.v. (0.9% saline or antagonist, mecamylamine, hexamethonium, atropine, naloxone or yohimbine) 10 minutes before administration of compound or nicotine at different doses. […]

[3] = Straub-Tail assay (Table 5); assay type: in vivo
From the text: A wide variety of biological assays have been used to evaluate the ability of a compound to act as an analgesic. Any of these known assays can be used to evaluate the analgesic ability of the compounds disclosed herein. The Straub-tail reaction, which is characteristic of opiate alkaloids, has been used as an assay for opiate agonists and antagonists. The assay is described in detail in Br. J. of Pharmacol. 1969, 36, 225. Another accepted assay for analgesic activity is the hot plate analgesia assay, described in J. of Pharmacol. Exp. Therap. 1953, 107, 385. An assay for the evaluation of the ability of a compound to bind to an opiate receptor is described in Mol. Pharmacol. 1974, 10, 868.
Table 5 provides the analgesic activity measured as ED50 (μg/Kg) for selected compounds disclosed herein, as determined using the Straub-Tail assay, as describe by J. Daily et al. J. Am. […] Chem. Soc. 1992, 114, 3475; T. Li, et al. Bioorganic and Medicinal Chemistry Letters 1993, 3, 2759.

[4] = molecular target: T2, nicotinic cholinergic receptor (Rattus norvegicus, UniProt P09483+P12390); assay: Competition with [3H](-)-cytisine for binding to rat cortex (brain) receptors (Tables 7, 8, 9)
T2 construct: A membrane fraction from rat brain cortex; tissue Harlan Laboratories; host or cells: rat brain cortex membranes
From the text: [^3 -H](-)-Cytisine is a nicotinic cholinergic receptor ligand that binds with high affinity to the a4b2 subtype receptor, the major subtype in rodent brain accounting for >90% of (-)-nicotine binding sites (Flores, et al., 1992; Whiting, et al., 1992). This nicotinic receptor subtype is most sensitive to (-)-nicotine compared to other receptor subtypes (Connolly, et al., (1992). Compounds that compete with cytisine for the nicotinic cholineric receptor are considered nicotine receptor agonists.
A membrane fraction from rat brain cortex (Harlan Laboratories) was prepared using an adaptation of an established method (Pabreza, et al., 1991). Compound and [^3 H]-(-)-cytisine (New England Nuclear, 42 Ci/mmol) were mixed before addition of membrane (0.5 mg protein) and incubated in glass tubes for 75 minutes on ice; total assay volume was 0.24 ml. Parallel assays to determine nonspecific binding were incubated in the presence of 10 uM (-)-nicotine (Sigma). Bound radioactivity was isolated by vacuum filtration onto glass microfiber filters (Whatman, GF-B) using millipore tubs, followed by 3×4 ml buffer wash. Filters were prerinsed with 0.5% polyethyleneimine prior to sample filtration to reduce nonspecific binding. Bound radioactivity was quantitated by scintillation counting.

[5] = Tail-flick assay, mouse (Table 9); assay type: in vivo; settings: sc, 5 min
Procedure: as §1, §2, §3
(§4) Mice (7/group) or rats were pretreated i.v. (0.9% saline or antagonist, mecamylamine, hexamethonium, atropine, naloxone or yohimbine) 10 minutes before administration of compound or nicotine at different doses. A control response (1.5-4 sec) was determined for each animal before treatment and test latencies were assessed at 5 minutes after compound administration (5 ml/kg, s.c.) or 2 min after nicotine (5 ml/kg, s.c.).

[6] = Tail-flick assay, rat (Table 9); assay type: in vivo; settings: sc, 5 min
Procedure: as §1, §2, §4

[7] = opiate antagonist naloxone; cited from earlier work
[8] = system: nicotinic cholinergic receptor; settings: in words; cited from earlier work
a4b2 subtype receptor = settings: in words; cited from earlier work
[9] = Table 7, rat brain cortex membranes, read-out: Nicotine Receptor Cytisine IC50
[10] = Table 9, read-out: rat brain, 3H-cytisine binding IC50

CN1C2CCC1C(c1ccc(Cl)nc1)C2 (stereo not shown)
Inhibition % ([1]; testing level 10^-9): 22% | Inhibition % ([1]; testing level 10^-11): 5%

c1cncc(C2CC3CCC2N3)c1 (stereo not shown)
Inhibition % ([1]; testing level 10^-9): 103%

C[N+]1(C)C2CCC1C(c1ccc(Cl)nc1)C2 (stereo not shown)
Inhibition % ([1]; testing level 10^-9): 49%

N=CN1C2CCC1C(c1ccc(Cl)nc1)C2 (stereo not shown)
Inhibition % ([1]; testing level 10^-9): 49% | Inhibition % ([1]; testing level 10^-11): 22%

N=CN1C2CCC1C(c1cccnc1)C2 (stereo not shown)
Inhibition % ([1]; testing level 10^-9): 5%

Cc1cc(C2CC3CCC2N3)on1 (stereo not shown)
ED50 [2]: > 2 mg/kg

Cc1cc(C2CC3CCC2N3C)on1 (stereo not shown)
ED50 ([2]; Table 8): ~1 mg/kg

c1ccc2nc(C3CC4CCC3N4)ccc2c1 (stereo not shown)
ED50 [2]: > 2 mg/kg

Clc1ccc([C@H]2C[C@H]3CC[C@@H]2N3)cn1 (relative stereo)
ED50 [3]: > 0.1 mg/kg

Clc1ccc([C@@H]2C[C@H]3CC[C@@H]2N3CC2CC2)cn1 (relative stereo)
effect at 1000 μg/Kg ([3]; @ 1000 (μg/Kg)): 100%

C[N+]1(C)[C@@H]2CC[C@H]1[C@H](c1ccc(Cl)nc1)C2 (relative stereo)
ED50 ([3]; read-out: ED50): 0.1 to 0.2 mg/kg

Fc1ccc([C@H]2C[C@H]3CC[C@@H]2N3)cn1 (relative stereo)
ED50 ([3]; read-out: ED50): ~0.01 mg/kg

N=CN1[C@@H]2CC[C@H]1[C@H](c1ccc(Cl)nc1)C2 (relative stereo)
effect at 100 ([3]; @ 100 (dose unit not given; column μg/Kg)): 99%

Cc1nnc([C@H]2C[C@H]3CC[C@@H]2N3C)o1 (relative stereo)
IC50 [4, 9]: 32 µM | Tail-Flick Assay % Effect after 5 min [2]: -2.9% | Tail-Flick Assay % Effect after 60 min [2]: -3.6%

Cc1nnc([C@@H]2C[C@H]3CC[C@@H]2N3C)o1 (relative stereo)
IC50 [4, 9]: 0.15 µM | Tail-Flick Assay % Effect after 5 min [2]: 6.7% | Tail-Flick Assay % Effect after 60 min [2]: 24.6%

Cc1noc([C@@H]2C[C@H]3CC[C@@H]2N3C)n1 (relative stereo) [racemic A/B, (±)-exo-2-(3-methyl-1,2,4-oxadiazol-5-yl)-7-methyl-7-azabicyclo[2.2.1]heptane]
IC50 [4, 10]: 0.1 µM | ED50 [5]: 0.2 mg/kg | ED50 [6]: 2.2 mg/kg

Cc1noc([C@@H]2C[C@H]3CC[C@@H]2N3C)n1 (single isomer, unassigned) [A]
IC50 [4, 10]: 1.4 µM

Cc1noc([C@@H]2C[C@H]3CC[C@@H]2N3C)n1 (single isomer, unassigned) [B]
IC50 [4, 10]: 0.018 µM

Clc1ccc([C@@H]2C[C@H]3CC[C@@H]2N3)cn1 (single isomer, unassigned) [epibatidine, exo-2-(2-chloro-5-pyridyl)-7-azabicyclo [2.2.1]heptane]
reversal of Straub-tail effect by naloxone [7]: not reversed by the opiate antagonist naloxone | nicotinic cholinergic receptor agonism [8]: nicotinic cholinergic receptor agonist

Clc1ccc(C2CC3CCC2N3)cn1 (stereo not shown) [1-epibatidine]
ED50 [3]: 0.009 mg/kg

O=c1cccc2n1C[C@@H]1CNC[C@H]2C1 [[^3 -H](-)-Cytisine]
affinity to a4b2 subtype receptor (a4b2 subtype receptor): high affinity

Clc1ccc([C@@H]2C[C@H]3CC[C@@H]2N3)cn1 [d-epibatidine]
ED50 [3]: 0.0075 mg/kg
